Experimental data reported in publication PMC3602187, “From Design to Screening: A New Antimicrobial Peptide Discovery Pipeline” (PLoS ONE, 2013).

Test system: Listeria innocua 33090
Experiment: colony overlay assay of peptide-secreting E. coli clones (library screening and re-test)
Format: cell-based
Set-up: key: higher activity group (H); equal activity group (E); lower activity group (L)
Conditions: library screening; selected colonies pooled by zone size; peptides identified by 454 sequencing, full-length sequences with minimum 20 reads
Experimental: For the in vivo production of AMPs, we have employed an E. coli expression system that relies on periplasmic-expression of recombinant peptides in a host cell that lacks the lpo membrane protein, thus releasing the peptides present in the periplasmic space outside the cells. When the producer cells are grown into colonies on a solid substrate, it leads to accumulation of the recombinant peptides around the colony and allows for easy library screening. The screening assay used in this study was a modified version of the standard agar diffusion method as previously described. Library-transformed E. coli colonies are overlaid with a tester strain and incubated overnight to allow for peptide expression and tester strain growth. Next day, the plates are inspected for the formation of clear growth inhibition zones around E. coli colonies, which is an indication of active AMP production by the host colony.
For the construction of Pln-423 mutant library in E. coli, the expression system that consists of a periplasmic-leaky E. coli strain JE5505 and the expression plasmid pFLAG-CTS was employed for direct screening of peptide activities. It should be noted here that this plasmid contains ompA secretion signal sequence and cleavage of this sequence results in a serine residue at the N-terminal of all mature peptides. A total of 1.0×10^5 colonies, approximately 8-fold coverage of the library, were screened against Listeria innocua 33090 in five separate screening experiments. L. innocua was previously deemed as a suitable indicator for pathogenic L. monocytogenes displaying similar bacteriocin sensitivity, therefore it was used as a surrogate strain throughout this study. The selection process involved two criteria; 1) the size of the each inhibition zone was compared to that of wild-type Pln-423 as a correlation to anti-listerial activity level, 2) when several colonies formed inhibition zones that are very similar in size and character, only a few from each group were selected. The colonies were pooled into three groups based on their activities, giving 43 clones in a higher activity group (H), 81 clones in an equal activity group (E), and 241 clones in a lower activity group (L). Their plasmids were extracted from each activity group and analyzed by both Sanger and 454 high-throughput sequencing to identify peptide sequences.
These clones were also re-tested by colony overlay assay to compare their activities to wild-type Pln-423 based on the size of the inhibition zone around each clone (Figure 2-A). Based on this assay, all ten plantaricin mutants formed larger inhibition zones (10.3±0.5 to 11.4±0.3 mm zone diameter) compared to wild-type Pln-423 (6.2±0.2 mm) against L. innocua 33090. Out of those ten, three clones have a single mutation and […] clones have two mutations and the remaining single clone has three mutations. […] Positions like Ser23, Ser27, His28, and Lys36 were commonly mutated with similar amino acids indicating their potential role on higher peptide activity.
The screening method used in this study was a modified version of the standard colony overlay method as previously described. All the chemicals and growth media supplements were obtained from either Sigma-Aldrich or Fisher Scientific unless otherwise stated. Transformed E. coli JE5505 cells were diluted to 3000–5000 cfu (determined empirically prior to screening by plating serial dilutions of E. coli suspensions of a known absorbance and counting the colonies after incubation) in 25 ml LB soft agar (0.8%, 45°C) per screening plate and poured into 150 mm petri dishes. Once the media was solidified, they were overlaid with 10 ml LB soft agar (45°C) and incubated at 37°C for 24 h for host-colony formation. Next day, these plates were re-overlaid with 10 ml TSB soft agar containing 1 mM IPTG and the indicator strain Listeria innocua ATCC 33090 (diluted to OD600 = 0.03). […]

Substance | activity group by size of inhibition zone compared to wild-type Pln-423
KYYGNGVTCGKHSCSVNWGQAFSCIVENLANFGHGKC* [GROUP L-UM-26] | L
KYYGNGVTCGKHSCSVNWGQAFSCLVSNLANFGHGKC* [Pep-2_6772] | L
KYYGNGVTCGKHSCSVNWGQAFSCMVSHLANGGHGKC* [Pep-2_9580] | L
KYYGNGVTCGKHSCSVNWGQAFSCNVSHLANFGHGKC* [Pep-1_45] | L
KYYGNGVTCGKHSCSVNWGQAFSCNVSHLANFGHGVC* [Pep-2_4888] | L and H
KYYGNGVTCGKHSCSVNWGQAFSCRVEHLANFGHGKC* [Pep-2_6013] | L
KYYGNGVTCGKHSCSVNWGQAFSCRVSHLANFGHGKC* [GROUP L-UM-13] | L
KYYGNGVTCGKHSCSVNWGQAFSCSASHLANFGHGKC* [Pep-1_53] | L
KYYGNGVTCGKHSCSVNWGQAFSCSFSHLANFGHGKC* [Pep-1_52] | L
KYYGNGVTCGKHSCSVNWGQAFSCSIHHLANFGHGKC* [Pep-2_5914] | L
KYYGNGVTCGKHSCSVNWGQAFSCSMSHLANFGHGKC* [GROUP L-UM-5] | L
KYYGNGVTCGKHSCSVNWGQAFSCSMSRLANFGHGKC* [Pep-2_6562] | L
KYYGNGVTCGKHSCSVNWGQAFSCSTSHLANFGHGKC* [GROUP E-UM-4] | E
KYYGNGVTCGKHSCSVNWGQAFSCSVAELANFGHGKC* [Pep-2_6350] | H
KYYGNGVTCGKHSCSVNWGQAFSCSVAHFANLGHGKC* [GROUP L-UM-30] | L
KYYGNGVTCGKHSCSVNWGQAFSCSVAHLANFGHGKC* [Pep-1_59] | L
KYYGNGVTCGKHSCSVNWGQAFSCSVCHMANFGHGKC* [Pep-2_7542] | L
KYYGNGVTCGKHSCSVNWGQAFSCSVDHLANFGHGHC* [Pep-2_11750] | H
KYYGNGVTCGKHSCSVNWGQAFSCSVDHLANFGHGKC* [GROUP H-UM-2] | H
KYYGNGVTCGKHSCSVNWGQAFSCSVEHLANFGHAKC* [Pep-2_6071] | E

Substance | activity group by size of inhibition zone compared to wild-type Pln-423
KYYGNGVTCGKHSCSVNWGQAFSCSVEHLANFGHGGC* [Pep-2_6077] | E and H
KYYGNGVTCGKHSCSVNWGQAFSCSVEHLANFGHGHC* [Pep-2_6073] | E
KYYGNGVTCGKHSCSVNWGQAFSCSVEHLANFGHGKC* [Pep-1_56] | E and H
KYYGNGVTCGKHSCSVNWGQAFSCSVEHLANFGHIKC* [Pep-2_6070] | L
KYYGNGVTCGKHSCSVNWGQAFSCSVEHLANFGHNKC* [Pep-2_11318] | H
KYYGNGVTCGKHSCSVNWGQAFSCSVEHLANFGYGKC* [Pep-2_6063] | E
KYYGNGVTCGKHSCSVNWGQAFSCSVFHLANFGHGLC* [Pep-2_12076] | L
KYYGNGVTCGKHSCSVNWGQAFSCSVGVLANFGHMHC* [GROUP L-UM-19] | L
KYYGNGVTCGKHSCSVNWGQAFSCSVHHLANFGHGKC* [Pep-1_55] | L
KYYGNGVTCGKHSCSVNWGQAFSCSVHHLANYGHGKC* [Pep-2_5943] | L
KYYGNGVTCGKHSCSVNWGQAFSCSVHRLANFGHGKC* [Pep-2_5917] | L
KYYGNGVTCGKHSCSVNWGQAFSCSVIALANFGHGKC* [Pep-2_7000] | L
KYYGNGVTCGKHSCSVNWGQAFSCSVIHLANFGHGSC* [Pep-2_11968] | H
KYYGNGVTCGKHSCSVNWGQAFSCSVLHLANFGHGKC* [GROUP L-UM-20] | L
KYYGNGVTCGKHSCSVNWGQAFSCSVMHLANFGHGKC* [GROUP L-UM-16] | L
KYYGNGVTCGKHSCSVNWGQAFSCSVNVLANFGHGKC* [Pep-2_6891] | L
KYYGNGVTCGKHSCSVNWGQAFSCSVRHLANFGHGEC* [Pep-2_11857] | L
KYYGNGVTCGKHSCSVNWGQAFSCSVSALANFGHGRC* [Pep-2_7045] | L
KYYGNGVTCGKHSCSVNWGQAFSCSVSDLANFGHGKC* [Pep-1_62] | L
KYYGNGVTCGKHSCSVNWGQAFSCSVSHFANFGHGKC* [GROUP E-UM-8] | E

Substance | activity group by size of inhibition zone compared to wild-type Pln-423
KYYGNGVTCGKHSCSVNWGQAFSCSVSHLA*FGHGKC* [GROUP L-UM-33] | L
KYYGNGVTCGKHSCSVNWGQAFSCSVSHLAAFGHGSC* [Pep-2_11993] | H
KYYGNGVTCGKHSCSVNWGQAFSCSVSHLAEFGHGKC* [Pep-1_80] | L
KYYGNGVTCGKHSCSVNWGQAFSCSVSHLAKFGHGKC* [Pep-1_81] | L
KYYGNGVTCGKHSCSVNWGQAFSCSVSHLANFGEGKC* [Pep-1_98] | H
KYYGNGVTCGKHSCSVNWGQAFSCSVSHLANFGFGWC* [Pep-2_12334] | L
KYYGNGVTCGKHSCSVNWGQAFSCSVSHLANFGHAKC* [Pep-1_107] | L
KYYGNGVTCGKHSCSVNWGQAFSCSVSHLANFGHDKC* [GROUP E-UM-9] | E
KYYGNGVTCGKHSCSVNWGQAFSCSVSHLANFGHGCC* [GROUP L-UM-31] | L
KYYGNGVTCGKHSCSVNWGQAFSCSVSHLANFGHGEC* [Pep-1_110] | H
KYYGNGVTCGKHSCSVNWGQAFSCSVSHLANFGHGKC* [GROUP E-UM-11] | E
KYYGNGVTCGKHSCSVNWGQAFSCSVSHLANFGHGKC* [GROUP L-UM-27] | L
KYYGNGVTCGKHSCSVNWGQAFSCSVSHLANFGHGLC* [Pep-1_112] | L
KYYGNGVTCGKHSCSVNWGQAFSCSVSHLANFGHGRC* [GROUP L-UM-25] | L
KYYGNGVTCGKHSCSVNWGQAFSCSVSHLANFGHGSC* [Pep-1_111] | L and E
KYYGNGVTCGKHSCSVNWGQAFSCSVSHLANFGHGWC* [Pep-1_114] | L
KYYGNGVTCGKHSCSVNWGQAFSCSVSHLANFGHNWC* [Pep-2_12339] | E
KYYGNGVTCGKHSCSVNWGQAFSCSVSHLANFGHRAC* [Pep-2_11153] | L
KYYGNGVTCGKHSCSVNWGQAFSCSVSHLANFGIGLC* [GROUP L-UM-3] | L
KYYGNGVTCGKHSCSVNWGQAFSCSVSHLANFGKGKC* [GROUP L-UM-11] | L
